Laboratory results published in publication PMC11079024, “Identification of a family of species-selective complex I inhibitors as potential anthelmintics” (Nature Communications, 2024).
Read-outs that look alike come from different tables or passages of the source.

Assays:
[1] = system: ben-1 mutant (ECA882) C. elegans; test: microbe, parasite or virus in culture; conditions: Caenorhabditis elegans; for viability at 1 µM / viability at 2 µM / viability at 3.9 µM / viability at 15.6 µM / viability at 31.3 µM / viability at 62.5 µM / viability at 125 µM / viability at 250 µM / viability at 500 µM / viability at 1000 µM: read-out: C. elegans ben-1(e1880) development/viability
Summary of the method: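 Development and viability scored from single well images as total worm pixels divided by the matching DMSO control value, mean of ≥3 replicates. Worms added as synchronized L1s to HB101 suspension in liquid NGM with compound (1% DMSO v/v), grown 6 days at 20 °C with shaking.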

[2] = biological target: B. taurus (heart) complex I (Bos taurus, UniProt P03887+P17694+P42026); test: biochemical; type: biochemical; conditions: for IC50: B. taurus heart mitochondria, read-out: B. taurus Complex I IC50; for activity at 0.0001 µM / activity at 0.0005 µM / activity at 0.001 µM / activity at 0.0025 µM / activity at 0.005 µM / activity at 0.013 µM / activity at 0.025 µM / activity at 0.063 µM / activity at 0.125 µM / activity at 0.313 µM / activity at 0.625 µM / activity at 1.5 µM / activity at 3 µM / activity at 15 µM / activity at 37.5 µM / activity at 75 µM: read-out: B. taurus mitochondrial complex I activity; for Log IC50 B. taurus complex I: log10 of IC50 in µM, B. taurus mitochondria
Chain of B. taurus (heart) complex I (P03887 whole entry): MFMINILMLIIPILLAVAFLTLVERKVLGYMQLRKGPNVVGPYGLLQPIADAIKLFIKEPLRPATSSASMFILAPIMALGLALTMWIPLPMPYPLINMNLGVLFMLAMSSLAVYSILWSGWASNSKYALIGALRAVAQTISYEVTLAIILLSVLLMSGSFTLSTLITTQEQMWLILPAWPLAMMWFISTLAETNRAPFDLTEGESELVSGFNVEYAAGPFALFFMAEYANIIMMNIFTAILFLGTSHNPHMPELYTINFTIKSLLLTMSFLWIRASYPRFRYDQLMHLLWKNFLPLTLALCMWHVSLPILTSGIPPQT
Chain of B. taurus (heart) complex I (P17694 34-463): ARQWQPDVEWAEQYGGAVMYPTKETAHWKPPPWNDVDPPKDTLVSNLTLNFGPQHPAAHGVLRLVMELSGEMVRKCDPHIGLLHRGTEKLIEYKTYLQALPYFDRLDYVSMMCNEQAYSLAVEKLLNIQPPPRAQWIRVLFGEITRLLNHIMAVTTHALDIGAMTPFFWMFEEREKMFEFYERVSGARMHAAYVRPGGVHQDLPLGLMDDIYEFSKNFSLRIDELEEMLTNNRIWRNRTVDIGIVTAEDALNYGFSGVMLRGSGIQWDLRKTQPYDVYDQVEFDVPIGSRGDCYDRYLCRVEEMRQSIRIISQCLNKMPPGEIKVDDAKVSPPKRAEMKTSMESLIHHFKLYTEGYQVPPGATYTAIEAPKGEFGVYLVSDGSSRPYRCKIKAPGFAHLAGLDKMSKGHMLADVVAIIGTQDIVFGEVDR
Chain of B. taurus (heart) complex I (P42026 38-216): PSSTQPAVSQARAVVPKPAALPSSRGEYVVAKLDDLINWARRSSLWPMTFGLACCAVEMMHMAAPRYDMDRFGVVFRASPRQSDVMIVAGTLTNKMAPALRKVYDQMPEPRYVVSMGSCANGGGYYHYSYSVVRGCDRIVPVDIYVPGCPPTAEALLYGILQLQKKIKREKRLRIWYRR
Summary of the method: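 Complex I activity followed as DCIP reduction (600 nm, 30 s reads, 15 min) with 80 μM NADH and 60 μM decylubiquinone in 25 mM KPi pH 7.5 containing 2 μM antimycin A and 2 mM KCN. Freeze-thawed mouse or bovine heart mitochondria at 0.2 mg/mL; initial-rate percent of solvent control, single-point 100 μM or dose-response.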

L1 wild-type C. elegans = test: microbe, parasite or virus in culture; conditions: Caenorhabditis elegans, read-out: C. elegans KCN Survival Assay LC50, estimated from fitted dose-response curves; mean of at least two biological replicates
[3] = read-out: C. elegans (ben-1) Development & Viability Assay LC50
[4] = read-out: C. elegans ben-1 log10 LC50 (converted)
[5] = estimated from fitted dose-response curves

Structure (SMILES)	LC50 [1, 3] [µM]	viability at 15.6 µM [1] [%]	viability at 31.3 µM [1] [%]	viability at 62.5 µM [1] [%]	viability at 125 µM [1] [%]	LC50 [1, 4] [µM]	activity at 0.0001 µM [2] [%]	activity at 0.0005 µM [2] [%]	activity at 0.001 µM [2] [%]	activity at 0.0025 µM [2] [%]	activity at 0.005 µM [2] [%]	activity at 0.013 µM [2] [%]	activity at 0.025 µM [2] [%]	activity at 0.063 µM [2] [%]	activity at 0.125 µM [2] [%]	activity at 0.313 µM [2] [%]	activity at 0.625 µM [2] [%]	activity at 1.5 µM [2] [%]	activity at 3 µM [2] [%]	activity at 15 µM [2] [%]	other results
Nc1nc2ccccc2n1Cc1ccc(Cl)cc1 [Compound 5652765]	71.7	89.9	76.1	63.7	13.8	71.6	93.5	96.1	91	95.6	88.8	88.3	83.3	87.9	79.5	76.3	72.5	54.3	36.4	4.61	viability at 1 µM [1]: 98%; viability at 2 µM [1]: 94.6%; viability at 3.9 µM [1]: 92.8%; viability at 250 µM [1]: 7.4%; viability at 500 µM [1]: 6.3%; IC50 [2, 5]: 2.27 µM; activity at 37.5 µM [2]: 0.42%; activity at 75 µM [2]: 0.3%; Log IC50 B. taurus complex I [2]: 0.36 µM; LC50 (L1 wild-type C. elegans): 16.9 µM
Cc1nc2ccccc2n1Cc1ccc(Cl)c(Cl)c1 [Compound 5655567]	85.3	100	99.5	84.2	10.6	85.3	91.2	90.2	95.5	94.9	95.5	85.5	82.4	79.8	78.8	62.7	60.2	41.5	23.2	1.19	viability at 1 µM [1]: 99.9%; viability at 2 µM [1]: 97.1%; viability at 3.9 µM [1]: 100%; viability at 250 µM [1]: 16.7%; IC50 [2, 5]: 1.17 µM; activity at 37.5 µM [2]: 0.14%; activity at 75 µM [2]: 0.62%; Log IC50 B. taurus complex I [2]: 0.07 µM; LC50 (L1 wild-type C. elegans): 8.26 µM
Cc1ccc(OCCn2cnc3ccccc32)cc1 [Compound 5671538]	> 1000	100	100	100	100	> 500	94.3	97.5	95.2	100	98.6	95.8	97.5	95	89.3	91.3	85.9	84.9	86.7	57.1	viability at 250 µM [1]: 100%; viability at 500 µM [1]: 100%; viability at 1000 µM [1]: 100%; LC50 ([1]; read-out: C. elegans ben-1 LC50): > 500 µM; IC50 [2]: 17.4 µM; activity at 37.5 µM [2]: 33.8%; activity at 75 µM [2]: 14.5%; Log IC50 B. taurus complex I [2]: 1.24 µM; LC50 (L1 wild-type C. elegans): 28.3 µM
Nc1nc2ccccc2n1CCOc1ccc(Br)cc1 [Compound 5842535]	41.1	100	85.9	5.7	6	41	89.6	91.9	90.7	94.2	96.1	92.4	87.8	92.4	92	85.5	84.7	82.8	67.2	33.6	viability at 1 µM [1]: 99.9%; viability at 2 µM [1]: 100%; viability at 3.9 µM [1]: 97.9%; IC50 [2]: 12.7 µM; activity at 37.5 µM [2]: 3.2%; activity at 75 µM [2]: 1.7%; Log IC50 B. taurus complex I [2]: 1.10 µM; LC50 (L1 wild-type C. elegans): 26.7 µM
Cc1ccc(C(C)C)c(OCC(O)Cn2cnc3ccccc32)c1 (stereo not drawn) [Compound 6093301]	366	96.4	97.2	83.6	88.1	366	94.9	95.3	95.9	100	99.5	100	96.1	94	90	81.5	75.8	60.4	45.2	18	viability at 1 µM [1]: 94.1%; viability at 2 µM [1]: 98.7%; viability at 3.9 µM [1]: 95.9%; viability at 250 µM [1]: 88.4%; viability at 500 µM [1]: 12.5%; viability at 1000 µM [1]: 4.7%; IC50 [2, 5]: 2.07 µM; activity at 37.5 µM [2]: 13.4%; activity at 75 µM [2]: 11.2%; Log IC50 B. taurus complex I [2]: 0.32 µM; LC50 (L1 wild-type C. elegans): 19.8 µM
